Experiment: Deprotection of a Boc-protected PCR primer at 94° C. in water, PCR buffer or TEAA, tracked by reverse-phase HPLC and mass spec
Type: physicochemical
Description: The RNaseP forward primer 19-mer [AGATTTGGACCTGCGAGCG](SEQ ID NO: 1) was synthesized on Boc-dG CPG (1 μmol) with Boc dA, dC, and dG amidites. The fully deprotected mass for this primer is 5868 g/mol and the expected mass for Boc protection is […] [15 Boc residues.100 amu/Boc=1500 added]. Deprotection of side chain protecting groups was performed with 25% 2-methoxyethylamine in methanol (1 mL) for 3 hrs at room temp, remove CPG and evaporate to dryness, re-dissolve in DI water (1 mL). The DMT was […] because the Boc group can be used as a hydrophobic handle. The product was desalted with 20-50 micron polystyrene beads packed in a 1 mL cartridge and eluted in 20% ACN/H2O.
The desalted Boc-primer was aliquoted into three microfuge tubes of 100 uL each. The samples were dried down and brought up in 1 mL of house DI water. Only water was added to the first tube. To the second tube 1 mL of PCR buffer pH 8.5, 1× with MgCl2, was added to a final concentration of 6 mM (standard PCR concentrations). To the third tube TEAA was added to give a final concentration of 0.025 N. Each of the three samples was aliquoted into ten 200 uL thin-walled PCR tubes for a total of 30 tubes. All primer preparation was done at room temperature.
An ABI 9700 Thermocycler was preheated to 94° C. Each sample was placed into the heat block and removed at the time point and placed on dry ice to stop the reaction. As a negative control, the T=0 sample was not heated and placed directly in ice at the beginning of the experiment. The samples were allowed to thaw at room temperature and transferred to a 96-well plate for HPLC and mass spectroscopy analysis.
For each time point, reverse-phase and mass spec data were acquired to track the removal of the Boc protecting group. The Boc protected primer is not a single species but rather a collection at various stages of protection.

## Boc-primer: RNaseP forward primer 19-mer [AGATTTGGACCTGCGAGCG] (SEQ ID NO: 1) synthesized with Boc dA, dC, and dG amidites (listed as DNA, chemistry not fully specified)
10 minutes, PCR buffer pH 8.5, 1× with MgCl2 6 mM
  deprotection after 10 minutes under normal PCR buffering: deprotected
10 minutes, TEAA 0.025 N
  Boc groups after 10 minutes in TEAA: some remained
10 minutes, samples in water, PCR buffer pH 8.5 with MgCl2 6 mM, TEAA 0.025 N
  Boc groups after 10 minutes: almost all of the Boc groups were gone
15 minutes, TEAA 0.025 N
  Boc groups after 15 minutes in TEAA: all were removed

From US20160199491A1, “Compounds compositions and methods including thermally labile moieties” (Biosearch Technologies, Inc., priority 2014, published 2016)
